The values that follow come from patent US10280159B2 (AbbVie Deutschland GmbH & Co. KG, priority 2015, dated 2019).

Holding throughout (type): cell-based
The target of one assay is T1, human S1PR4 (Homo sapiens, UniProt O95977).
T1 construct: host or cells: CHO-K1
T1 sequence (O95977 1-384): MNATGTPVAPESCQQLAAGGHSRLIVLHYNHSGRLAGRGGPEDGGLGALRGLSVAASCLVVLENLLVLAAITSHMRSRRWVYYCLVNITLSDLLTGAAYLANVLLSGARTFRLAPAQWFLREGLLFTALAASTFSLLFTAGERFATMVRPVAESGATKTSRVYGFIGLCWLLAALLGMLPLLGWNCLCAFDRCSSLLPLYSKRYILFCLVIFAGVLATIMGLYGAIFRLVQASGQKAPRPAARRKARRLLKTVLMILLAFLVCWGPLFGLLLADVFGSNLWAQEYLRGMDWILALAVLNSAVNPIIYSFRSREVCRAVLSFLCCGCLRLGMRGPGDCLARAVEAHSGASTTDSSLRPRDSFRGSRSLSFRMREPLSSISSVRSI
Description: Intracellular Ca2+ release (FLIPR) agonist potency, S1P4. The following applies: recombinant CHO-K1 cells expressing human S1PR4, aequorin, Gq/i5; Calcium 5 FLIPR; read-out: S1P4 EC50. Here is the method: (§1) Agonistic activity was measured using the method described below.
(§2) Intracellular Ca^2+ Release
(§3) Agonist potency and intrinsic activity was assessed by measurement of intracellular Ca^2+ release. Recombinant CHO-K1 cells (Euroscreen, Brussels, Belgium) expressing human S1PR5, S1PR1, S1PR3 or S1PR4 receptors, aequorin, and GTP binding protein Gq/i5 were cultured using a medium containing nutrient mixture F-12 Ham (Sigma-Aldrich) with 10% FBS, and 100 μg/mL gentamicin and equilibrated at 5% CO2.
(§4) Phospho-fingolimod was used as positive control. Antagonists were pre-incubated for 10 min with cells before addition of the agonist (phospho-fingolimod at EC80). Measurements were performed using a fluorometric imaging plate reader FLIPR®tetra (Molecular Devices). Agonist at the human S1P receptors were characterized by deducing EC50 (potency) values from a nonlinear fit to the measured fluorescence raw data after normalization to the reference agonist (phospho-fingolimod) curve.

A further assay deals with T2, human S1PR5 (Homo sapiens, UniProt Q9H228).
T2 construct: host or cells: CHO-K1
T2 sequence (Q9H228 whole entry): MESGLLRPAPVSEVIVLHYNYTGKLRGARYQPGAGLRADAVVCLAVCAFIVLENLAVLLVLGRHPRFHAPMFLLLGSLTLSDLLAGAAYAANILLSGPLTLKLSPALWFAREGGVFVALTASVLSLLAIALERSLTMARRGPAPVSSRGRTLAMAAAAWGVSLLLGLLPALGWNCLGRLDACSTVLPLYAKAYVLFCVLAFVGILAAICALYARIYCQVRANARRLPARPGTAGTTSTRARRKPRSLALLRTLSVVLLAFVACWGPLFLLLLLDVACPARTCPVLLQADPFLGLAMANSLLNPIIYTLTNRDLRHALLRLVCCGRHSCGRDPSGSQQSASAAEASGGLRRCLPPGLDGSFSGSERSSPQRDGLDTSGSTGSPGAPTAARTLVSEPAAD
Put plainly: Intracellular Ca2+ release (FLIPR) agonist potency, S1P5. The following applies: recombinant CHO-K1 cells expressing human S1PR5, aequorin, Gq/i5; Calcium 5 FLIPR; read-out: S1P5 EC50 range. Here is the method:
as §1, §2, §3, §4

A further assay addresses T3, human S1PR1 (Homo sapiens, UniProt P21453).
T3 construct: host or cells: CHO-K1
Put plainly: Intracellular Ca2+ release (FLIPR) agonist potency, S1P1. The following applies: recombinant CHO-K1 cells expressing human S1PR1, aequorin, Gq/i5; Calcium 5 FLIPR; read-out: S1P1 EC50. The method, then:
as §1, §2, §3, §4

Structures can show the parent of a compound that is named as a salt.

T3 sequence (P21453 whole entry): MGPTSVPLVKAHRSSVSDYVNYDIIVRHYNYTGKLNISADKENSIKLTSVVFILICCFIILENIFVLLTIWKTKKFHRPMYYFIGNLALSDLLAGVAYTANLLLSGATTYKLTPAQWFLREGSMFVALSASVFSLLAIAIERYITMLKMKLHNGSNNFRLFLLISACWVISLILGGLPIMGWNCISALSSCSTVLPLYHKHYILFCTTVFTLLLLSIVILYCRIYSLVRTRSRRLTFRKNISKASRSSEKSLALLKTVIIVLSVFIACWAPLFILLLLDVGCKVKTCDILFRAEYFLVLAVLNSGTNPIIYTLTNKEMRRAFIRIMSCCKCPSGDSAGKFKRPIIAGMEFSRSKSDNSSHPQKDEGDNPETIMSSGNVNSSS

Consider `N#Cc1ccc(COc2ccc3c(c2)OCC(N2CC(C(=O)O)C2)C3)c(F)c1` (stereo not drawn) [Compound 89, 1-[7-[(4-cyano-2-fluoro-phenyl)methoxy]chroman-3-yl]azetidine-3-carboxylic acid], for which the 50% effective concentration (EC50) at human S1PR4 is > 1000 nM; on human S1PR5 it was 1000 to 10000 nM; at human S1PR1, > 1000 nM.
On to `O=C(O)C1CN(C2COc3cc(OCc4cc(F)cc(C(F)(F)F)c4)ccc3C2)C1` (stereo not drawn) [Compound 90, 1-[7-[[3-fluoro-5-(trifluoromethyl)phenyl]methoxy]chroman-3-yl]azetidine-3-carboxylic acid], for which the concentration for a half-maximal effect (EC50) at human S1PR4 is < 1000 nM; at human S1PR5, 10 to 100 nM; at human S1PR1, > 1000 nM.
Take `O=C(O)C1CN(C2COc3cc(OCc4cc(F)ccc4C(F)(F)F)ccc3C2)C1` (stereo not drawn) [Compound 91, 1-[7-[[5-fluoro-2-(trifluoromethyl)phenyl]methoxy]chroman-3-yl]azetidine-3-carboxylic acid]: the results for the EC50 on human S1PR4, on human S1PR5 and on human S1PR1 were > 1000 nM, 100 to 1000 nM and > 1000 nM, respectively.
In the case of `COc1cc(COc2ccc3c(c2)OCC(N2CC(C(=O)O)C2)C3)ccc1F` (stereo not drawn) [Compound 92, 1-[7-[(4-fluoro-3-methoxy-phenyl)methoxy]chroman-3-yl]azetidine-3-carboxylic acid], the EC50 at human S1PR4 is > 1000 nM; on human S1PR5, 1000 to 10000 nM; at human S1PR1, > 1000 nM.
Consider `O=C(O)C1CN(C2COc3cc(OCCOc4ccc(F)cc4)ccc3C2)C1` (stereo not drawn) [Compound 93, 1-[7-[2-(4-fluorophenoxy)ethoxy]chroman-3-yl]azetidine-3-carboxylic acid], for which the 50% effective concentration (EC50) was > 1000 nM on human S1PR4, 1000 to 10000 nM at human S1PR5 and > 1000 nM on human S1PR1.
For `O=C(O)C1CN(C2COc3cc(OCc4cccc(C(F)(F)F)c4F)ccc3C2)C1` (stereo not drawn) [Compound 94, 1-[7-[[2-fluoro-3-(trifluoromethyl)phenyl]methoxy]chroman-3-yl]azetidine-3-carboxylic acid], the concentration giving a half-maximal response (EC50) at human S1PR4 is > 1000 nM; at human S1PR5, 1000 to 10000 nM; on human S1PR1, > 1000 nM.
On to `COc1ccc(COc2ccc3c(c2)OCC(N2CC(C(=O)O)C2)C3)cc1F` (stereo not drawn) [Compound 95, 1-[7-[(3-fluoro-4-methoxy-phenyl)methoxy]chroman-3-yl]azetidine-3-carboxylic acid], for which the figures for the 50% effective concentration (EC50) on human S1PR4, on human S1PR5 and on human S1PR1 were > 1000 nM, 1000 to 10000 nM and > 1000 nM, respectively.
Take `Cc1c(F)cccc1COc1ccc2c(c1)OCC(N1CC(C(=O)O)C1)C2` (stereo not drawn) [Compound 96, 1-[7-[(3-fluoro-2-methyl-phenyl)methoxy]chroman-3-yl]azetidine-3-carboxylic acid]: the EC50 at human S1PR4 is > 1000 nM; at human S1PR5, 100 to 1000 nM; on human S1PR1, > 1000 nM.
Consider `O=C(O)C1CN(C2COc3cc(OCCOc4cccc(F)c4)ccc3C2)C1` (stereo not drawn) [Compound 97, 1-[7-[2-(3-fluorophenoxy)ethoxy]chroman-3-yl]azetidine-3-carboxylic acid], for which the 50% effective concentration (EC50) at human S1PR4 is > 1000 nM; at human S1PR5, 1000 to 10000 nM; at human S1PR1, > 1000 nM.
Turning to `COc1ccc(F)c(COc2ccc3c(c2)OCC(N2CC(C(=O)O)C2)C3)c1` (stereo not drawn) [Compound 98, 1-[7-[(2-fluoro-5-methoxy-phenyl)methoxy]chroman-3-yl]azetidine-3-carboxylic acid], the results for the concentration for a half-maximal effect (EC50) on human S1PR4, at human S1PR5 and on human S1PR1 were > 1000 nM, 1000 to 10000 nM and > 1000 nM, respectively.
For the compound `O=C(O)C1CN(C2COc3cc(OCCCc4cccc(F)c4)ccc3C2)C1` (stereo not drawn) [Compound 99, 1-[7-[3-(3-fluorophenyl)propoxy]chroman-3-yl]azetidine-3-carboxylic acid], the figures for the EC50 at human S1PR4, on human S1PR5 and at human S1PR1 were > 1000 nM, 1000 to 10000 nM and > 1000 nM, respectively.
On to `COc1cc(F)cc(COc2ccc3c(c2)OCC(N2CC(C(=O)O)C2)C3)c1` (stereo not drawn) [Compound 100, 1-[7-[(3-fluoro-5-methoxy-phenyl)methoxy]chroman-3-yl]azetidine-3-carboxylic acid], for which the EC50 on human S1PR4 is > 1000 nM; at human S1PR5, 1000 to 10000 nM; at human S1PR1, > 1000 nM.
`COc1cccc(F)c1COc1ccc2c(c1)OCC(N1CC(C(=O)O)C1)C2` (stereo not drawn) [Compound 101, 1-[7-[(2-fluoro-6-methoxy-phenyl)methoxy]chroman-3-yl]azetidine-3-carboxylic acid]: the EC50 at human S1PR4 is > 1000 nM; at human S1PR5, 1000 to 10000 nM; on human S1PR1, > 1000 nM.
For the compound `O=C(O)C1CN(C2COc3cc(OCCCCOc4cccc(F)c4)ccc3C2)C1` (stereo not drawn) [Compound 102, 1-[7-[4-(3-fluorophenoxy)butoxy]chroman-3-yl]azetidine-3-carboxylic acid], the results for the concentration giving a half-maximal response (EC50) at human S1PR4, at human S1PR5 and on human S1PR1 were > 1000 nM, 1000 to 10000 nM and > 1000 nM, respectively.
On to `O=C(O)C1CN(C2COc3cc(OCc4ccc(C(F)(F)F)c(F)c4)ccc3C2)C1` (stereo not drawn) [Compound 103, 1-[7-[[3-fluoro-4-(trifluoromethyl)phenyl]methoxy]chroman-3-yl]azetidine-3-carboxylic acid], for which the EC50 on human S1PR4 was > 1000 nM; at human S1PR5 it was 1000 to 10000 nM; at human S1PR1, > 1000 nM.
For `O=C(O)C1CN(C2COc3cc(OCc4cc(OC(F)(F)F)ccc4F)ccc3C2)C1` (stereo not drawn) [Compound 104, 1-[7-[[2-fluoro-5-(trifluoromethoxy)phenyl]methoxy]chroman-3-yl]azetidine-3-carboxylic acid], the EC50 on human S1PR4 is > 1000 nM; at human S1PR5, 100 to 1000 nM; at human S1PR1, > 1000 nM.
Regarding `Cc1cccc(COc2ccc3c(c2)OCC(N2CC(C(=O)O)C2)C3)c1F` (stereo not drawn) [Compound 105, 1-[7-[(2-fluoro-3-methyl-phenyl)methoxy]chroman-3-yl]azetidine-3-carboxylic acid], the values for the EC50 at human S1PR4, on human S1PR5 and at human S1PR1 were > 1000 nM, 1000 to 10000 nM and > 1000 nM, respectively.
As to `O=C(O)C1CN(C2COc3cc(OCc4ccc(C(F)(F)F)cc4F)ccc3C2)C1` (stereo not drawn) [Compound 106, 1-[7-[[2-fluoro-4-(trifluoromethyl)phenyl]methoxy]chroman-3-yl]azetidine-3-carboxylic acid], the results for the EC50 at human S1PR4, at human S1PR5 and at human S1PR1 were > 1000 nM, 1000 to 10000 nM and > 1000 nM, respectively.
`CC(Oc1ccc2c(c1)OCC(N1CC(C(=O)O)C1)C2)c1ccccc1F` (stereo not drawn) [Compound 107, 1-[7-[1-(2-fluorophenyl)ethoxy]chroman-3-yl]azetidine-3-carboxylic acid]: the 50% effective concentration (EC50) at human S1PR4 was > 1000 nM; on human S1PR5, 1000 to 10000 nM; at human S1PR1, > 1000 nM.
`O=C(O)C1CN(C2COc3cc(OCc4ccc5cc(F)ccc5n4)ccc3C2)C1` (stereo not drawn) [Compound 108, 1-[7-[(6-fluoro-2-quinolyl)methoxy]chroman-3-yl]azetidine-3-carboxylic acid]: the half-maximal effective concentration (EC50) at human S1PR4 is > 1000 nM; at human S1PR5 it was 1000 to 10000 nM; at human S1PR1, > 1000 nM.
In the case of `O=C(O)C1CN(C2COc3cc(OCC4CCCCC4)ccc3C2)C1` (stereo not drawn) [Compound 109, 1-[7-(cyclohexylmethoxy)chroman-3-yl]azetidine-3-carboxylic acid], the figures for the EC50 at human S1PR4, at human S1PR5 and at human S1PR1 were > 1000 nM, 100 to 1000 nM and > 1000 nM, respectively.
For `O=C(O)C1CCN(C2COc3cc(OCc4c(Cl)cccc4Cl)ccc3C2)CC1` (stereo not drawn) [Compound 110, 1-[7-[(2,6-dichlorophenyl)methoxy]chroman-3-yl]piperidine-4-carboxylic acid; Salt with 2,2,2-trifluoroacetic acid], the concentration giving a half-maximal response (EC50) on human S1PR4 is < 1000 nM; on human S1PR5, 10 to 100 nM; at human S1PR1 it was > 1000 nM.
Consider `CCc1cccc(Cl)c1COc1ccc2c(c1)OCC(N1CCC(C(=O)O)CC1)C2` (stereo not drawn) [Compound 111, 1-[7-[(2-chloro-6-ethyl-phenyl)methoxy]chroman-3-yl]piperidine-4-carboxylic acid; Salt with 2,2,2-trifluoroacetic acid], for which the EC50 on human S1PR4 is < 1000 nM; on human S1PR5 it was < 10 nM; at human S1PR1 it was < 1000 nM.
Turning to `O=C(O)C1CCN(C2COc3cc(OCc4ccccc4)ccc3C2)CC1` (stereo not drawn) [Compound 112, 1-(7-benzyloxychroman-3-yl)piperidine-4-carboxylic acid], the EC50 at human S1PR4 was < 1000 nM; at human S1PR5 it was 1000 to 10000 nM; at human S1PR1, > 1000 nM.
On the same counts, the results for `O=C(O)CNC1COc2cc(OCC3CCCCC3)ccc2C1` (stereo not drawn) [Compound 113, 2-[[7-(cyclohexylmethoxy)chroman-3-yl]amino]acetic acid] are > 1000 nM, 100 to 1000 nM and > 1000 nM.
Consider `O=C(O)CNC1COc2cc(OCCc3c(Cl)cccc3Cl)ccc2C1` (stereo not drawn) [Compound 114, 2-[[7-[2-(2,6-dichlorophenyl)ethoxy]chroman-3-yl]amino]acetic acid], for which the 50% effective concentration (EC50) is > 1000 nM at human S1PR4, 1000 to 10000 nM on human S1PR5 and > 1000 nM at human S1PR1.
